According to US5238838A (Degussa Aktiengesellschaft, priority 1991, dated 1993):
“And” between values parts separate entries of the source, which are not always exact repeats. Identical values can stand only once. “Also recorded” adds a separate entry of the source. Like-named read-outs stand apart in the source and are kept apart here.

Legend:
L-carnitine amidase [1] = test: Test for the induction of L-carnitine amidase; assay type: cell-based, strain DSM 6230; settings: for Activity (mU/mg) / Activity (mU/ml): 5 g/l of the substance as inductor, 36 h, L-carnitine amide as substrate
Procedure: (§1) In this test, various substances were examined for their induction action. At the same time, the growth on these compounds was followed. The medium used was a minimum medium with 1.0 g/l instead of 0.5 g/l yeast extract, to which 5 g/l of the substance to be tested were added in each instance. The culture without inductor contained 5 g/l yeast extract. All tests were carried out with 20 ml shaking cultures which were incubated 36 h at 30° C. and 120 rpms in a rotating [round]shaking machine. These cultures were inoculated with 1% of an initial culture of strain DSM 6230. L-carnitine amide was used as substrate for the enzyme test.
(§2) At the same time, the growth of the bacteria was followed in these carnitine amide concentrations. The culture conditions corresponded to those in example 3.

strain DSM 6230 = test: Growth of strain DSM 6230 on the test substances (OD660); assay type: cell-based; settings: for OD660: 5 g/l of the substance in minimum medium with 1.0 g/l yeast extract, 36 h, 30° C.; for Growth of the strain on the substance (in words): strain DSM 6230
Procedure: 1367 strains were isolated during the screening program. These strains were incubated in 100 ml Erlenmeyer flasks containing 20 ml of the particular enrichment medium in a rotary agitator at 30° C. and 120 rpms. The optical density at 660 nm was taken as an indication for the cell growth.
as §1, §2

L-carnitine amidase [2] = test: Substrate spectrum of L-carnitine amidase; assay type: biochemical, strain DSM 6230; settings: substrate 50 mM; 30° C.; 100 mM potassium phosphate buffer pH 8
Procedure: The enzyme test was carried out at 30° C. in 100 mM potassium phosphate buffer pH 8. The substrate concentration was 50 mM.

L-carnitine amidase [3] = system: L-carnitine amidase;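 also: additives put into the enzyme mixture before substrate, reaction then initiated by substrate addition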
Procedure: In order to test the influence of various additives on the enzyme activity, they were added to the test batches without substrate in a final concentration of 1 mM and 10 mM in each instance. The reaction batches were first incubated for 45 min. at 30° C. before the reaction was started by adding substrate solution.

[4] = carnitine amide concentration 0.5 g/l
[5] = carnitine amide concentration 1.0 g/l
[6] = carnitine amide concentration 2.0 g/l
[7] = carnitine amide concentration 3.0 g/l
[8] = carnitine amide concentration 5.0 g/l
[9] = carnitine amide concentration 10.0 g/l
[10] = carnitine amide concentration 15.0 g/l
[11] = carnitine amide concentration 20.0 g/l
[12] = carnitine amide concentration 25.0 g/l
[13] = additive 1 mM, 45 min. preincubation at 30° C.
[14] = additive 10 mM, 45 min. preincubation at 30° C.

| SMILES | Activity (mU/mg) (L-carnitine amidase [1]) | Activity (mU/ml) (L-carnitine amidase [1]) | OD660 (strain DSM 6230) | Enzyme activity (%) (L-carnitine amidase [3]; [13]) | Enzyme activity (%) (L-carnitine amidase [3]; [14]) | further results |
| --- | --- | --- | --- | --- | --- | --- |
| C[N+](C)(C)CC(O)CC(N)=O (racemic) [DL-carnitine amide] | 1673 mU/mg | 8867 mU/ml | 2.7 |  |  | amidase activity (U/ml) (L-carnitine amidase [1]; [4]): 0.7 U/ml; amidase activity (U/ml) (L-carnitine amidase [1]; [5]): 2.4 U/ml; amidase activity (U/ml) (L-carnitine amidase [1]; [6]): 6.1 U/ml; amidase activity (U/ml) (L-carnitine amidase [1]; [7]): 7.3 U/ml; amidase activity (U/ml) (L-carnitine amidase [1]; [8]): 8.9 U/ml; amidase activity (U/ml) (L-carnitine amidase [1]; [9]): 8.6 U/ml; amidase activity (U/ml) (L-carnitine amidase [1]; [10]): 7.3 U/ml; amidase activity (U/ml) (L-carnitine amidase [1]; [11]): 7.1 U/ml; amidase activity (U/ml) (L-carnitine amidase [1]; [12]): 6.7 U/ml; OD660 nm (strain DSM 6230; [4]): 1.1; OD660 nm (strain DSM 6230; [5]): 1.3; OD660 nm (strain DSM 6230; [6]): 1.7; OD660 nm (strain DSM 6230; [7]): 2.0; OD660 nm (strain DSM 6230; [8]): 2.8; OD660 nm (strain DSM 6230; [9]): 3.9; OD660 nm (strain DSM 6230; [10]): 3.7; OD660 nm (strain DSM 6230; [11]): 3.6; OD660 nm (strain DSM 6230; [12]): 3.5; Growth of the strain on the substance (in words) (strain DSM 6230): Good growth |
| C[N+](C)(C)CC(O)CC#N (racemic) [DL-carnitine nitrile] | 88 mU/mg | 221 mU/ml | 0.8 |  |  |  |
| C[N+](C)(C)CC(O)CC(=O)[O-] (racemic) [DL-carnitine] | 1255 mU/mg | 5773 mU/ml | 2.5 |  |  | Growth of the strain on the substance (in words) (strain DSM 6230): Good growth |
| C[C@@H](O)[C@H](N)C(N)=O [1-Thr-NH2] |  |  |  |  |  | Rel. activity (%) (L-carnitine amidase [2]): 0% |
| OCCS [2-mercaptoethanol] |  |  |  | 100% | 101% |  |
| CC=O [Acetaldehyde] |  |  |  | 83% | 81% |  |
| CC(N)=O [Acetamide] | 0 mU/mg | 0 mU/ml | 1.0 |  |  | Rel. activity (%) (L-carnitine amidase [2]): 0% |
| C=CC(N)=O [Acrylamide] | 136 mU/mg | 170 mU/ml | 0.8 |  |  | Rel. activity (%) (L-carnitine amidase [2]): 0% |
| O=[N+]([O-])[O-].[Ag+] [AgNO3] |  |  |  | 65% |  |  |
| [Ba+2].[Cl-].[Cl-] [BaCl2] |  |  |  | 102% | 105% |  |
| NC(=O)c1ccccc1 [Benzamide] | 0 mU/mg | 0 mU/ml | 0.3 |  |  | Rel. activity (%) (L-carnitine amidase [2]): 0% |
| CCCC(N)=O [Butyramide] | 18 mU/mg | 54 mU/ml | 0.9 |  |  | Rel. activity (%) (L-carnitine amidase [2]): 0% |
| [Ca+2].[Cl-].[Cl-] [CaCl2] |  |  |  | 103% | 90% |  |
| [Cl-].[Cl-].[Co+2] [CoCl2] |  |  |  | 90% | 76% | Reduction of the enzyme activity (in words) (L-carnitine amidase [3]; concentration of 10 mM): reduction of the enzyme activity |
| [Cl][Cu][Cl] [CuCl2] |  |  |  | 70% | 54% |  |
| N[C@@H]1CON=C1O [Cycloserine] |  |  |  | 96% | 97% |  |
| NC(=O)[C@H](N)Cc1ccccc1 [D-Phe-NH2] |  |  |  |  |  | Rel. activity (%) (L-carnitine amidase [2]): 0% |
| CC(C)C[C@@H](N)C(N)=O [D-leucine amide] | 81 mU/mg | 170 mU/ml | 0.8 |  |  |  |
| C[N+](C)(C)CC(=O)CC(=O)[O-] [Dehydrocarnitine] | 279 mU/mg | 837 mU/ml | 0.8 |  |  | Induction of L-carnitine amidase (in words) (L-carnitine amidase [1]; strain DSM 6230): induced; also recorded: Inductors; also recorded: induce the enzyme; Growth of the strain on the substance (in words) (strain DSM 6230): can not be metabolized or are metabolized very poorly |
| CCC(CC)(C(=O)O)C(=O)O [Diethyl malonic acid] |  |  |  | 92% | 68% | Reduction of the enzyme activity (in words) (L-carnitine amidase [3]; concentration of 10 mM): reduction of the enzyme activity |
| O=C(O)c1cc(SSc2ccc([N+](=O)[O-])c(C(=O)O)c2)ccc1[N+](=O)[O-] [Dinitrodithiodibenzoic acid] |  |  |  | 34% |  |  |
| CCN1C(=O)C=CC1=O [Ethyl maleinimide] |  |  |  | 100% |  | Enzyme activity (%) (L-carnitine amidase [3]): 99% |
| [Cl][Fe][Cl] [FeCl2] |  |  |  | 86% | 57% |  |
| [Cl][Fe]([Cl])[Cl] [FeCl3] |  |  |  | 87% | 46% |  |
| NCC(=O)NCC(N)=O [Gly-Gly-NH2] |  |  |  |  |  | Rel. activity (%) (L-carnitine amidase [2]): 0% |
| C[N+](C)(C)CC(=O)[O-] [Glycine betaine] | 33 mU/mg | 183 mU/ml | 2.9 |  |  | Growth of the strain on the substance (in words) (strain DSM 6230): Good growth |
| [Cl][Hg][Cl] [HnCl2] |  |  |  | < 1% |  |  |
| O=C(O)CI [Iodoacetate] |  |  |  |  |  | Enzyme activity (%) (L-carnitine amidase [3]): 97% and 72%; Reduction of the enzyme activity (in words) (L-carnitine amidase [3]): reduction of the enzyme activity |
| C[C@H](N)C(N)=O [L-Ala-NH2] |  |  |  |  |  | Rel. activity (%) (L-carnitine amidase [2]): 0% |
